Series [1] deals with Proteus vulgaris OX-19. Kind of series: Minimum inhibitory concentration, Proteus vulgaris OX-19. The format is cell-based. The note with it: OX19, 0.5% peptone agar, 37° C., 17 hours. Here is the method: (§1) *Minimum inhibitory concentrations were determined on a 0.5% peptone agar
(§2) by incubation at 37° C. for 17 hours.

Series [2] deals with Proteus rettgeri GN466. Put plainly: Minimum inhibitory concentration, Proteus rettgeri GN466. The series is classed as cell-based. The settings on record: Providencia rettgeri, 0.5% peptone agar, 37° C., 17 hours. As for the experimental part: as §1, §2
In series [3] the test system is Pseudomonas aeruginosa No. 12. Kind of series: Minimum inhibitory concentration, Pseudomonas aeruginosa No. 12. The series is classed as cell-based. The note with it: 0.5% peptone agar, 37° C., 17 hours. As for the experimental part:
as §1, §2

In series [4] the test system is Escherichia coli NIHJ. Kind of series: Minimum inhibitory concentration, Escherichia coli NIHJ. The series is classed as cell-based. The settings on record: 0.5% peptone agar, 37° C., 17 hours. As for the experimental part: as §1, §2
The test system of series [5] is Escherichia coliK-12. Put plainly: Minimum inhibitory concentration, Escherichia coli K-12. The series is classed as cell-based. The note with it: 0.5% peptone agar, 37° C., 17 hours. As for the experimental part:
as §1, §2

Series [6] has as its system Gram-positive and Gram-negative bacteria. Kind of series: Antibacterial activity against Gram-positive and Gram-negative bacteria. The format is cell-based. The settings on record: in words. As for the experimental part:
as §1, §2

Series [7] concerns Serratia marcescens. Put plainly: Minimum inhibitory concentration, Serratia marcescens. The note with it: 0.5% peptone agar, 37° C., 17 hours. The series is classed as cell-based. As for the experimental part: as §1, §2
A short description of series [8]: Stability in aqueous or 0.02N HCl aqueous solution. The format is physicochemical. The note with it: in words.
The subject of series [9] is Sarcina lutea PCI1001. Put plainly: Minimum inhibitory concentration, Sarcina lutea PCI1001. The settings on record: Micrococcus luteus, 0.5% peptone agar, 37° C., 17 hours. The format is cell-based. As for the experimental part: as §1, §2
The test system of series [10] is Bacillus subtilis NRRL B-558. Put plainly: Minimum inhibitory concentration, Bacillus subtilis NRRL B-558. The series is classed as cell-based. The note with it: NRRLB558, 0.5% peptone agar, 37° C., 17 hours. As for the experimental part: as §1, §2
In series [11] the test system is Proteus rettgeri GN311. Kind of series: Minimum inhibitory concentration, Proteus rettgeri GN311. The settings on record: Providencia rettgeri, 0.5% peptone agar, 37° C., 17 hours. The format is cell-based. Here is the method:
as §1, §2

Series [12] relates to Pseudomonas aeruginosa A3. Kind of series: Minimum inhibitory concentration, Pseudomonas aeruginosa A3. The series is classed as cell-based. The settings on record: 0.5% peptone agar, 37° C., 17 hours. Here is the method: as §1, §2
Series [13] relates to Escherichia coli K-12 ML1629. Put plainly: Minimum inhibitory concentration, Escherichia coli K-12 ML1629. The format is cell-based. The settings on record: K12ML1629, 0.5% peptone agar, 37° C., 17 hours. Here is the method: as §1, §2
In series [14] the test system is Salmonella typhi T-63. Put plainly: Minimum inhibitory concentration, Salmonella typhi T-63. The format is cell-based. The note with it: Salmonella enterica, 17 h, read-out: Minimum Inhibitory Concentration. Here is the method:
as §1, §2

Series [15] concerns Klebsiella pneumoniae PCI602. Kind of series: Minimum inhibitory concentration, Klebsiella pneumoniae PCI602. The format is cell-based. The note with it: 0.5% peptone agar, 37° C., 17 hours. Here is the method:
as §1, §2

Series [16] has as its system Staphylococcus aureus FDA209P. Kind of series: Minimum inhibitory concentration, Staphylococcus aureus FDA209P. The settings on record: 0.5% peptone agar, 37° C., 17 hours. The series is classed as cell-based. As for the experimental part:
as §1, §2

For series [17], the system named is Pseudomonas fluorescens. Kind of series: Minimum inhibitory concentration, Pseudomonas fluorescens. The settings on record: 0.5% peptone agar, 37° C., 17 hours. The series is classed as cell-based. As for the experimental part: as §1, §2
Series [18] concerns Micrococcus flavus FDA16. Kind of series: Minimum inhibitory concentration, Micrococcus flavus FDA16. The format is cell-based. The note with it: 0.5% peptone agar, 37° C., 17 hours. As for the experimental part: as §1, §2
Series [19] relates to Staphylococcus aureus Smith. Put plainly: Minimum inhibitory concentration, Staphylococcus aureus Smith. The series is classed as cell-based. The settings on record: 0.5% peptone agar, 37° C., 17 hours. Here is the method: as §1, §2
The test system of series [20] is Mycobacterium smegmatis ATC607. Kind of series: Minimum inhibitory concentration, Mycobacterium smegmatis ATC607. The series is classed as cell-based. The note with it: Mycolicibacterium smegmatis, 0.5% peptone agar, 37° C., 17 hours. Here is the method: as §1, §2

≈ marks a conversion by molar mass, not a printed value. Bounds are passed on as bounds.

Consider `CN(CC(=O)O)NC(=O)C[C@H](N)CCCN` [Deoxynegamycin], for which the MIC in series [1] is 3.13 µg/mL (≈ 13.5 µM); in [2], 3.13 µg/mL (≈ 13.5 µM); in [3] it was 50 µg/mL (≈ 215 µM); in [4] it was 6.25 µg/mL (≈ 26.9 µM); in series [5], 3.13 µg/mL (≈ 13.5 µM); in [7], 25 µg/mL (≈ 108 µM). Further, the MIC in [9] is over 100 µg/mL; in series [10] it was 100 µg/mL (≈ 431 µM); in [11], 6.25 µg/mL (≈ 26.9 µM); in series [12], 25 µg/mL (≈ 108 µM); in [13] it was 3.13 µg/mL (≈ 13.5 µM); in series [14] it was 0.78 µg/mL (≈ 3.36 µM). In addition, the MIC in [15] was found to be 6.25 µg/mL (≈ 26.9 µM); in [16], 25 µg/mL (≈ 108 µM); in [17] it was 3.13 µg/mL (≈ 13.5 µM); in [18] it was 50 µg/mL (≈ 215 µM); in series [19], 6.25 µg/mL (≈ 26.9 µM); in series [20], 50 µg/mL (≈ 215 µM). Moreover, the “inhibition of growth of Gram-positive and Gram-negative bacteria” value in [6] is “active against Gram-positive and Gram-negative bacteria”. For the same molecule, the “stability in aqueous solution (general statement)” value in [8] is given as “quite stable in aqueous solution”.
Turning to `CO[C@@H](CN)C[C@@H](N)CC(=O)NN(C)CC(=O)O` [O-Methylnegamycin], the MIC in series [1] came to 1.56 µg/mL (≈ 5.95 µM); in series [2] it was 3.13 µg/mL (≈ 11.9 µM); in series [3] it was 25 µg/mL (≈ 95.3 µM); in series [4], 6.25 µg/mL (≈ 23.8 µM); in series [5] it was 3.13 µg/mL (≈ 11.9 µM); in series [7], 25 µg/mL (≈ 95.3 µM). Further, the MIC in series [9] turned out to be 25 µg/mL (≈ 95.3 µM); in [10] it was 50 µg/mL (≈ 191 µM); in [11], 6.25 µg/mL (≈ 23.8 µM); in series [12] it was 12.5 µg/mL (≈ 47.7 µM); in series [13], 1.56 µg/mL (≈ 5.95 µM); in series [14], 1.56 µg/mL (≈ 5.95 µM). Moreover, the MIC stood at 6.25 µg/mL (≈ 23.8 µM) in series [15]; 12.5 µg/mL (≈ 47.7 µM) in [16]; 1.56 µg/mL (≈ 5.95 µM) in series [17]; 50 µg/mL (≈ 191 µM) in series [18]; 6.25 µg/mL (≈ 23.8 µM) in [19]; 25 µg/mL (≈ 95.3 µM) in [20]. Also, in series [6], the “inhibition of growth of Gram-positive and Gram-negative bacteria” value was “active against Gram-positive and Gram-negative bacteria”. Further, the “stability in aqueous solution (general statement)” value in series [8] is reported as “quite stable in aqueous solution”.

(Values after US4065495A (Zaidan Hojin Biseibutsu Kagaku Kenkyu Kai, priority 1975, dated 1977).)
